According to paper PMC7795662, “Alkaloids with Anti-Onchocercal Activity from Voacanga africana Stapf (Apocynaceae): Identification and Molecular Modeling” (Molecules, 2020):
Read-outs that look alike come from different tables or passages of the source.

Columns and labels:
[1] = test system: Onchocerca ochengi adult male worms; assay: O. ochengi adult male worm motility assay, primary and secondary screens; format: cell-based; conditions: for IC50: read-out: IC50 Adult Male Worm; for effect on motility of adult male worms (in words): dose-dependent manner; for SI Adult Male Worm: selectivity index = IC50 on LLC-MK2 cells (CC50) / IC50 on parasites
Method: (§1) The isolation of O. ochengi adult worms was performed as described previously by Cho-Ngwa et al.. Briefly, fresh pieces of umbilical cattle skin with palpable nodules bought from butchery in Douala, Cameroon were washed, drained and sterilized with 70% ethanol. The worms were carefully scraped out of the nodules as single masses and temporarily submerged in 1 mL complete culture medium, CCM [RPMI-1640 (Sigma-Aldrich, St. Louis, MO, USA) supplemented with 25 mM HEPES, 2 g/L sodium bicarbonate, 2 mM L-glutamine, 5% newborn calf serum (SIGMA, St. Louis, MO, USA), 150 units/mL penicillin, 150 µg/mL streptomycin and 0.5 µg/mL amphotericin B (SIGMA, St. Louis, MO, USA), pH 7.4)] using 24-well plates. The adult worms were incubated in the culture medium overnight in a CO2 incubator, during which period the male worms migrated out of the nodular masses. Only wells containing viable worms received treatment with test compounds. Damaged worms and worms from putrefied nodules were discarded. The viability of worms retained for the assay was ascertained by visual and microscopic examination of adult male worm motility using an inverted microscope.
(§2) The compounds were tested on […] at a single concentration of 30 μM, in duplicate wells. […] The female worms were removed and incubated in 500 μL of 0.5 μg/mL MTT for the last 30 min of incubation. Inhibition of formazan formation from MTT directly correlates with worm death. The worms were blotted on absorbent paper and observed visually for blue coloration against a white background. […] Auranofin at 10 μM, which had previously shown activity against O. ochengi adult worms and Mf, was used as a positive control, while negative control wells received the diluent, 2% DMSO only, previously shown to have no effect on parasite viability. The solvent DMSO (2%) was used as a negative control. […] Furthermore, the toxicity of DMSO decreases with dilution.
Adult male worm motility was evaluated with the aid of an inverted microscope.
(§3) The pure compounds with 100% activity at primary screens were re-tested as described under primary screens, in order to determine the IC50 values. The IC50 assays were performed in triplicate and each experiment repeated for confirmation. The means of all activities at a concentration were calculated and used in the statistical analyses. GraphPadPrism version 6.0 (GraphPad Software, San Diego, CA, USA) was used to generate dose response curves from which the IC50 values were obtained.

[2] = test system: Onchocerca ochengi adult male worms; assay: as above; format: cell-based; conditions: for inhibition at 30 µM: Onchocerca ochengi, 24 h, read-out: % Adult Male Worm Motility Reduction after 24 h
[3] = test system: Monkey kidney epithelial cells (LLC-MK2); assay: Cytotoxicity on monkey kidney epithelial cells, microscopic; format: cell-based; conditions: read-out: IC50 Monkey Kidney Cells (LLC-MK2)
Method: Monkey kidney epithelial cells (LLC-MK2) (ATCC, Manassas, VA, USA) were cultured at 37 °C in humidified air with 5% CO2 in a Hera Cell-150 incubator (Thermo Electron, Karlsruhe, Germany) until the cell layer was almost confluent. The cell suspension was dispensed into 96-well micro titer plates (200 µL/well) and kept in the incubator for 3–5 days for cells to grow and become fully confluent. These cells served as feeder layers for the Mf assays and were also used for cytotoxicity studies.
Cytotoxicity of the pure compounds with anti-onchocercal activities was assessed on LLC-MK2 cells, microscopically, on day 5 of the Mf assay. Living cells were flattened out and attached to the culture plate, while dead cells were rounded up and detached from the plate. The IC50 values for these cells were estimated from the morphological deformation data.

[4] = test system: Onchocerca ochengi microfilariae; assay: O. ochengi microfilariae (Mf) motility assay, primary and secondary screens; format: cell-based; conditions: for inhibition at 30 µM: 24 h, read-out: % Mf Motility Reduction after 24 h; for IC50: read-out: IC50 Mf; for effect on motility of microfilariae (in words): dose-dependent manner; for SI Mf: selectivity index = IC50 on LLC-MK2 cells (CC50) / IC50 on parasites
Method: Briefly, Mf were prepared using the method described by Cho-Ngwa et al., with slight modifications. A few skin snips were obtained from different locations and incubated in aliquots of culture medium for 15 min, after which the emergent Mf were qualified and quantified using an inverted microscope and standard atlases. The leftover pieces of skin were shaved, rinsed, sterilized with 70% ethanol and sliced into thin slivers. The slivers were incubated in CCM for 2 h, and the emergent highly motile O. ochengi Mf were concentrated by centrifugation. The Mf were transferred to 96-well micro titer plates (15 Mf/100 μL/well) containing a fully confluent LLC-MK2 cell layer in 100 μL of CCM. This was monitored for viability and sterility for 24 h before addition of test and control compounds.
The biological assays were conducted in duplicate in the 96-well microtiter plates. The Mf were incubated with the drug for 120 h in a total of 200 μL of medium. Mf viability was assessed by microscopy once every day and motility inhibition scores were recorded. […] Motility inhibition correlates to drug activity. The positive control drug was amorcazine at 30 μM, and negative control was the diluent (DMSO).
Compounds showing 100% activity in the primary screens were re-tested as described under primary screens to determine the IC50 values. All assays were repeated at least once. The selectivity index (SI) of each extract was calculated as the ratio of the IC50 of the extract on the mammalian cell (termed CC50) to the IC50 on parasites.

[5] = test system: Onchocerca ochengi adult female worms; assay: O. ochengi adult female worm viability, MTT/formazan assay; format: cell-based; conditions: for killing at 30 µM: read-out: % Adult Female Worm Death after 120 h; for activity on adult female worms (in words): biochemical assessment at 30 μM; for IC100 Adult Female Worm: secondary screen
Method: as §1, §2, §3

Onchocerca ochengi = test system: Onchocerca ochengi; set-up: method as in earlier work; conditions: from stem bark of V. africana; cited from earlier work
[6] = Primates, LLC-MK2, 120 h, cytotoxicity, day 5, estimated from morphological deformation
[7] = Onchocerca ochengi, primary screen, 30 μM
[8] = Onchocerca ochengi, secondary screen, motility

Molecule	IC50 ([1]; Onchocerca ochengi) [µM]	effect on motility of adult male worms (in words) [1]	IC100 Adult Male Worm ([1]; secondary screen) [µM]	SI Adult Male Worm [1]	inhibition at 30 µM [2] [%]	IC50 [3, 6] [µM]	IC50 [4, 8] [µM]	effect on motility of microfilariae (in words) [4]	IC100 Mf ([4]; secondary screen) [µM]	SI Mf [4]	killing at 30 µM ([5]; Onchocerca ochengi, 120 h) [%]	activity on adult female worms (in words) [5]	IC100 Adult Female Worm [5] [µM]	inhibition at 30 µM ([4]; Onchocerca ochengi) [%]	other results
COC(=O)[C@@]12C[C@@H]3C[C@H]([C@H](C)O)[C@@H]1N(CCc1c2[nH]c2ccc(OC)cc12)C3 [Compound 3, voacristine]	8.07	inhibit the motility	16.14	3.71	100	≥ 30	4.34	inhibit the motility	8.68	6.91	50	moderately active	>30		inhibition at 30 µM [4, 7]: 100%
voacamine [Compound 7]		inhibit the motility	10					inhibit the motility	10			moderately active	>30		IC50 ([1]; secondary screen, motility): 3.45 µM; % Adult Male Worm Motility Reduction after 24 h ([2]; primary screen, 30 μM): 100%; IC50 ([3]; cytotoxicity, day 5, estimated from morphological deformation): ≥ 30 µM; % Mf Motility Reduction after 24 h ([4]; primary screen, 30 μM): 100%; IC50 ([4]; secondary screen, motility): 2.49 µM; % Adult Female Worm Death after 120 h ([5]; primary screen, 30 μM, corresponds to % inhibition of formazan formation): 65%; activity against Onchocerca ochengi (in words) (Onchocerca ochengi): showing activity
CN1CCN(C(=S)Nc2ccc(Nc3ccc([N+](=O)[O-])cc3)cc2)CC1 [amocarzine, reference compound]															inhibition at 10 µM ([5]; Onchocerca ochengi, 120 h, read-out: inhibition of formazan formation in adult female worms): 100%
COc1ccc2[nH]c3c(c2c1)CCN1CC2CC3C1C([C@H](C)O)C2 (stereo partly shown) [Compound 6, iboxygaine]	9.07	inhibit the motility	18.14	3.30	100			inhibit the motility	9.44	6.35	50	moderately active	>30	100	IC50 ([3]; Primates, LLC-MK2, 120 h): ≥ 30 µM; IC50 ([4]; Onchocerca ochengi): 4.72 µM
Ivermectin [reference compound]															% Mf Motility Reduction after 24 h ([4]; positive control, 10 μg/mL): 100%
CC[C@H]1C[C@@H]2CN3CCc4c([nH]c5ccccc45)[C@](C(=O)OC)(C2)[C@H]13 [Compound 4, coronaridine]	8.68	inhibit the motility	17.36	3.45	100	≥ 30	4.21	inhibit the motility	8.42	7.13	50	moderately active	>30		inhibition at 30 µM [4, 7]: 100%
CC(=O)OC[C@H]1O[C@@H]([S-])[C@H](OC(C)=O)[C@@H](OC(C)=O)[C@@H]1OC(C)=O.CCP(CC)CC.[Au+] [Auranofin, reference compound]															% Adult Male Worm Motility Reduction after 24 h ([2]; positive control, 10 μM): 100%; % Mf Motility Reduction after 24 h ([4]; positive control, 10 μM): 100%; % Adult Female Worm Death after 120 h ([5]; positive control, 10 μM, % inhibition of formazan formation): 100%
C/C=C1/CN(C)C2Cc3c([nH]c4ccccc34)[C@@H](c3cc4[nH]c5c(c4cc3OC)CCN3CC4CC([C@H](C)O)C3[C@@]5(C(=O)OC)C4)CC1C2C(=O)OC (stereo partly shown) [Compound 8, voacorine]	3.45	inhibit the motility	6.90	8.69	100			inhibit the motility	4.98	12.04	50	moderately active	>30	100	IC50 ([3]; Primates, LLC-MK2, 120 h): ≥ 30 µM; IC50 ([4]; Onchocerca ochengi): 2.49 µM
C/C=C1\CN(C)C2Cc3c([nH]c4ccccc34)[C@@H](c3cc4[nH]c5c(c4cc3OC)CCN3CC4C[C@H](CC)C3[C@@]5(C(=O)OC)C4)CC1C2C(=O)OC (stereo partly shown) [Compound 1, voacamine A]	4.45	inhibit the motility	8.90	6.74	100	≥ 30	3.69	inhibit the motility	7.38	8.13	65	moderately active	>30	100	
CC[C@H]1C[C@@H]2C[C@H]3c4[nH]c5cc(OC)ccc5c4CC[N@@](C2)[C@@H]13 [Compound 5, tabernanthine]		almost inactive			0			almost inactive			0	almost inactive		0	
